Source: patent US9408848B2, “Fluorescent CDK inhibitors for treatment of cancer” (Georgetown University, priority 2008, dated 2016)

Key:
[1] = tested on: T1, CDK1/cyclinA (Homo sapiens); assay: Kinase assay ([γ-33P]-ATP, histone H1); assay type: biochemical; details: read-out: % inhibition of kinase activity, CDK1/cyclinA
T1 construct: purchased Millipore, Dundee, UK (screening service)
Protocol: (§1) The final reaction was carried out in a 25 μL solution.
(§2) Briefly assays were performed with a Biomek 2000 Laboratory Automation Workstation in a 96-well format (Beckman instruments, Palo Alto, Calif., U.S.A) for 40 min at ambient temperature in 25 μL incubations using [γ-^33P]-ATP. In a final reaction volume of 25 μL corresponding CDK/cyclin (h) (5-10 mU) was incubated with 8 mM MOPS pH 7.0, 0.2 mM EDTA, 0.1 mg/mL histone H1, 10 mM MgAcetate and [γ-^33P-ATP](specific activity approx. 500 cpm/pmol, concentration as required). The reaction was initiated by the addition of the MgATP mix. After incubation for 40 min at room temperature, the reaction was stopped by the addition of 5 μL of a 3% phosphoric acid solution.

[2] = target: T2, CDK1/cyclinB (Homo sapiens, UniProt P06493); assay: Kinase assay ([γ-33P]-ATP, histone H1); assay type: biochemical; details: compound 0.1 μM
T2 construct: purchased Millipore, Dundee, UK (screening service)
Protocol: as §1, §2

[3] = target: T3, CDK2/cyclinE (Homo sapiens, UniProt P24941); assay: Kinase assay ([γ-33P]-ATP, histone H1); assay type: biochemical; details: read-out: % inhibition of kinase activity, CDK2/cyclinE
T3 construct: purchased Millipore, Dundee, UK (screening service)
Protocol: as §1, §2

[4] = target: T4, CDK3/cyclinE (Homo sapiens, UniProt Q00526); assay: Kinase assay ([γ-33P]-ATP, histone H1); assay type: biochemical; details: read-out: % inhibition of kinase activity, CDK3/cyclinE
T4 construct: purchased Millipore, Dundee, UK (screening service)
Protocol: as §1, §2

[5] = target: T5, CDK7/cyclinH/MATI (Homo sapiens, UniProt P50613); assay: Kinase assay ([γ-33P]-ATP, histone H1); assay type: biochemical; details: read-out: % inhibition of kinase activity, CDK7/cyclinH/MATI
T5 construct: purchased Millipore, Dundee, UK (screening service)
Protocol: . The final reaction was carried out in a 25 μL solution. The respective kinases (at […] were incubated with 8 mM MOPS (pH 7.0), 0.2 mM EDTA, 0.1 mg/ml histone H1, 10 mM MgAcetate and [γ-33P-ATP] (specific activity approximately 500 cpm/pmol, concentration as required). The reaction was then initiated by the addition of the MgATP mix. The reaction was stopped after 40 min of incubation by adding 5 μL of a 3% phosphoric acid solution. 10 μL of the reaction was spotted onto a P30 filter mat and washed 3 times for 5 min in 75 mM phosphoric acid and one in methanol prior to drying and counted radioactivity by scintillation counting. […]. Table 1 summarizes the cytotoxic effects of VMY compounds and its controls on breast cancer cell line.
as §2, with “Kinase selectivity of compounds VMY-1-101 and VMY-1-103 were screened at Millipore, Dundee, UK. Briefly” for “Briefly”, “solution. From the reaction, 10 μL was spotted onto a P30 filtermat and washed three times for 5 minutes in 75 mM phosphoric acid and once in methanol prior to dying and scintillation counting.” for “solution.”

[6] = tested on: MCF-7; assay: Cell viability assay (WST-1); assay type: cell-based, human; details: Homo sapiens, MCF7, 48 h, read-out: IC50 (concentration yielding 50% growth inhibition)
Protocol: (§3) (10%), 2 mM L-glutamine, and 50 μg/mL each of antibiotics, namely penicillin, streptomycin, and neomycin at 37° C. in a humidified incubator containing 5% CO2
(§4) Briefly human breast cancer cells were seeded into a 96-well plate at 3000 cells per well in DMEM containing 10% FBS. Following 24 hours attachment period, compounds were dissolved in DMSO and serially diluted in tissue culture media and added to the cells in triplicate, and incubated for 48 h at 37° C. Control cells were treated with equal amount of DMSO. After 48 h incubation, cell viability was measured by WST-1 assay according to the manufacturer's instructions (Roche). […] The formazan absorbance, which correlates to the number of living cells, was measured at 450 nm and 630 nm as reference filter using a microplate reader. (Ultramark, Microplate Imaging System, Bio-Rad). The IC50 was calculated from the graph of the log of the compound concentration versus the fraction of the surviving cells.

[7] = tested on: MDA-MB-231; assay: Cell viability assay (WST-1); assay type: cell-based, human; details: Homo sapiens, MDA-MB-231, 48 h, read-out: IC50 (concentration yielding 50% growth inhibition)
Protocol: as §3, §4

[8] = tested on: MCF-7; assay: Cell cycle analysis by flow cytometry (propidium iodide); assay type: cell-based, human
Protocol: (§5) 5 μM concentrations were used for all drugs tested. The cells were exposed to the vehicle (DMSO) or […] of the CDK inhibitors for 24 hrs. The cell cycle distribution was then assessed using standard procedures.

[9] = tested on: MDA-MB-231; assay: as above; assay type: cell-based, human
Protocol: as §5

[10] = tested on: MDA-MB-231 cells; assay: Apoptotic signaling, Western blot of apoptosis related proteins; assay type: cell-based, human; details: MDA-MB-231, 10 μM, 48 hours
Protocol: In order to understand whether VMY-1-101 and VMY-1-103 compounds were able to induce apoptotic cell death, the expression of anti- and pro-apoptotic proteins in MDA-MB-231 cells following treatment with 10 μM drugs for 48 hours was evaluated first. […] This is further confirmed with proapoptotic 116 kDa poly (ADP-ribose) polymerase protein (PARP) into its 89-kDa fragments. […].
Western blotting was performed according to literature procedure. In brief, cell pellets were collected at the indicated times after treatment with compounds, suspended in 100 μL of lysis buffer (50 mM Tris-HCl, 150 mM NaCl, 1 mM EGTA, 1 mM EDTA, 20 mM NaF, 100 mM Na3VO4, 0.5% NP-40, 1% Triton X-100, 1 mM PMSF, 5 μg/ml aprotinin, 5 μg/ml leupeptin), vortexed twice and incubated in an ice bath for 30 min. Lysates were cleared by centrifugation at 12000 rpm for 15 min at 4° C. and protein was estimated by detergent compatible BCA protein assay kit (Pierce). Equivalent amounts of total proteins were resolved by SDS-PAGE (10%) and transferred to PVDF membrane. Membranes were blocked by 5% non-fat powdered milk in TBST overnight. Membranes were incubated with indicated primary antibodies for 2 hours followed by HRP-conjugated secondary antibodies for 1 hr and developed using enhanced chemiluminescence kit (Perkin Elmer).

T5 sequence (P50613 whole entry): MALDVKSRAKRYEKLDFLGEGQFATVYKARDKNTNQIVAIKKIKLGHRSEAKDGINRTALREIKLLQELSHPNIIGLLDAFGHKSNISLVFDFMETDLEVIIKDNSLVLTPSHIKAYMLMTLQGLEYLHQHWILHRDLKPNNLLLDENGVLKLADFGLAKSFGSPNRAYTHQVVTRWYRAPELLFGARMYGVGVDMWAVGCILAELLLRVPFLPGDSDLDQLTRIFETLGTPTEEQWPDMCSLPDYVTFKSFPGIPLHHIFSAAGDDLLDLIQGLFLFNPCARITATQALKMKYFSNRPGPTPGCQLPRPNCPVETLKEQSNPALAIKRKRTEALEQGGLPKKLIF
T5 sequence (P51946 whole entry partner): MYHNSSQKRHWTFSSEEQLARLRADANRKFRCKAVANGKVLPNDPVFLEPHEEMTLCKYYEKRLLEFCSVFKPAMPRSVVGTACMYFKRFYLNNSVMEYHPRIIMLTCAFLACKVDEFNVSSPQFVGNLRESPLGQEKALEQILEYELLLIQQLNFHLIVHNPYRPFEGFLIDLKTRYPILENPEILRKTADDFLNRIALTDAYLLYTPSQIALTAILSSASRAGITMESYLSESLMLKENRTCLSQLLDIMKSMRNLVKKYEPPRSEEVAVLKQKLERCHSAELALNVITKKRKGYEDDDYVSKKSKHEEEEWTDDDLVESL
T5 sequence (P51948 whole entry partner): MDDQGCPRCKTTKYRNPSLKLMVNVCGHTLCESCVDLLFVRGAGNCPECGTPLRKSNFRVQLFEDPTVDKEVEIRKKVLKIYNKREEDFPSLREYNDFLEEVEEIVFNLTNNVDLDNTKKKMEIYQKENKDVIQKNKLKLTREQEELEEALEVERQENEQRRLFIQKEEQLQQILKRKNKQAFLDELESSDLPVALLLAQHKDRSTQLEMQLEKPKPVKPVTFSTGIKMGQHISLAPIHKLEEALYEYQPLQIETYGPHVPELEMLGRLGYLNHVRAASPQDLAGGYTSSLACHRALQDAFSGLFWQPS
T2 sequence (P06493 whole entry): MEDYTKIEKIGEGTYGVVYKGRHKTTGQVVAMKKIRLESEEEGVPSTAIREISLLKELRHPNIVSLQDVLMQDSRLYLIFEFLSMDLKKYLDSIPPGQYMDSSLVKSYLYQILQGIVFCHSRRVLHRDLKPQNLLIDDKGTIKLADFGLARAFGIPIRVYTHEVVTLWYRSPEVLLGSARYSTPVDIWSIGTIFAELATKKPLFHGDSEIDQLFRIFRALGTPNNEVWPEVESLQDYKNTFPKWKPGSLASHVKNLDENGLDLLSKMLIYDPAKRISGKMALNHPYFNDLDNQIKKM
T2 sequence (P14635 whole entry partner): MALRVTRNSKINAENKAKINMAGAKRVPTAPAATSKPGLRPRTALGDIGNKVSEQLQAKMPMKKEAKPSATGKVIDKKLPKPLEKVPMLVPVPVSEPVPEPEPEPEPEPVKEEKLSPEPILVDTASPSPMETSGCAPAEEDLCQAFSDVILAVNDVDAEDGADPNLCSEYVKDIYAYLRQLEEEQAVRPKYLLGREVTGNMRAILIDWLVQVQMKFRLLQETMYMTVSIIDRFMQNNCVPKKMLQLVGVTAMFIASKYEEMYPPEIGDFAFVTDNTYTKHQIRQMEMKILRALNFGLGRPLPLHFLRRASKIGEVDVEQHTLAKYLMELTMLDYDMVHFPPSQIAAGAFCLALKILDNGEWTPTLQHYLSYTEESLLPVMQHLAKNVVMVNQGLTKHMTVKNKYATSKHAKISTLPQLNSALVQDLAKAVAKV

## CC[C@H](CO)Nc1nc(Nc2ccc(C(=O)NCCNS(=O)(=O)c3cccc4c(N(C)C)cccc34)c(Cl)c2)c2ncn(C(C)C)c2n1 [VMY-1-101, 2-Chloro-N-[2-(5-dimethylamino-naphthalene-1-sulfonylamino)-ethyl]-4-[2-(1-hydroxymethyl-propylamino)-9-isopropyl-9H-purin-6-ylamino]-benzamide]
[1]
  inhibition at 0.1 µM: 62%
[2]
  inhibition at 0.1 µM: 16 ± 3%
[3]
  inhibition at 0.1 µM: 87%
[4]
  inhibition at 0.1 µM: 40 ± 3%
[5]
  inhibition at 0.1 µM: 57%
[6]
  IC50: 19.1 ± 1.14 µM
[7]
  IC50: 4.86 ± 1.24 µM
[8]; MCF-7, 5, 10 μM, 24 hrs
  effect on cell cycle progression (G2/M phase): induced the cell cycle progression in G2/M phase
[8]; MCF-7, 24 hrs, 5 μM
  % G1: 63.56 ± 1.20%
  % S: 10.75 ± 0.88%
  % Sub-G1: 2.08 ± 0.19%
[9]; MDA-MB-231, 5, 10 μM, 24 hrs
  effect on cell cycle progression (G2/M phase): induced the cell cycle progression in G2/M phase
[9]; MDA-MB-231, 24 hrs, 5 μM
  % G1: 51.5 ± 0.50%
  % S: 25.05 ± 0.45%
  % Sub-G1: 2.01 ± 0.19%
[10]
  PARP cleavage: moderate cleavage of the 116-kDa full length PARP into an 89-kDa fragment
  protein level of full length caspase 3 and 7: decrease in protein level of full length caspase 3 and 7
